Source: ChEMBL document CHEMBL3507680, “University of Dundee, Gates Library screen for HepG2 cell viability”

Assay: Human HepG2 cell viability assay in 384 well format
Type: toxicity, cell-based
Parameters: dose 125 nL, time 70.5 hour; concentration not given beside the values
Settings: HepG2 cells, read-out: Inhibition

Structure (SMILES) | cytotoxicity at 70.5 h
CN(C)C(=O)CN1CCC2(CCCN(Cc3ccoc3)C2)C1=O (stereo not given) | -13.2%
CCCN(Cc1cnn(C)c1)S(=O)(=O)c1cc(C)cc(F)c1 | 23.3%
CC(C)C(C)N(C)Cc1nnc(-c2ccco2)o1 (stereo not given) | 17.4%
Cc1ccc(C(=O)CN2C(=O)c3ccccc3CS2(=O)=O)c(C)c1 | -10.2%
CCn1nc(C)cc1C(=O)NCc1cc(N(C)C)nc2ccccc12 | 9.21%
CCC(CC)(CC)NC(=O)Nc1nnc(-c2ccccn2)s1 | -13.2%
CC(C)CN1CCOC[C@H](Oc2ccc(S(C)(=O)=O)cc2)C1 | 13.8%
CN(Cc1cccc(C#N)c1)Cc1nc2c(cnn2C)c(=O)[nH]1 | -19%
O=C(COc1ccc(Cl)cc1)N1CCN(c2cnccn2)CC1 | -0.713%
CCN(CC)CC(=O)N(C)C(c1cccc(F)c1)c1ccccn1 (stereo not given) | 13.5%
Cc1cc(C)n2ncc(CN3CCC(Cn4cc(CO)nn4)CC3)c2n1 | 0.595%
COC(C)C(=O)Nc1cc(C(=O)N2CCSCC2)ccc1C (stereo not given) | 0.013%
COc1ccc(CN2CC[C@H]3O[C@@H](C(=O)NCC4CC4)CC[C@H]32)cc1 | -8.24%
Cn1cc(C2SCC(=O)Nc3c2cnn3C(C)(C)C)cn1 (stereo not given) | 0.666%
O=C(Nc1ccc(F)cc1)C(c1ccccc1)N1CCOCC1 (stereo not given) | 5.55%
O=C(NCCCn1ccnc1)c1cccnc1OCC(F)(F)F | 4.36%
Cc1ccc(C(=O)NCCS(=O)(=O)N2CCSCC2)o1 | 3.19%
CC(C)Cn1[nH]cc/c1=N\C(=O)CN1CCOC(Cn2cccn2)C1 (stereo not given) | 21.5%
COCC(=O)N1CCC2(CC1)COc1ccccc1S(=O)(=O)N(C)C2 | 0.748%
Cc1c(C(=O)NCC(C)(C)S(C)(=O)=O)cccc1-c1ccccn1 | -16.9%
COc1ccccc1CC(=O)N1CCCC(CNS(C)(=O)=O)C1 (stereo not given) | -9.26%
Cn1cccc1C(=O)N1CCc2ncnc(C3CC3)c2CC1 | -0.695%
O=C(CN1CC(c2nc(C3CC3)no2)C1)NCC1CCCO1 (stereo not given) | 3.91%

Structure (SMILES) | cytotoxicity at 70.5 h
O=C(NCC(O)c1ccc(F)cc1F)c1cccc(F)c1 (stereo not given) | -2.46%
CN(C)CCOCc1nnc2n1CCN(c1cnccn1)CC2 | 12.4%
CCCN(CCC)C(=O)CN1CCCC1C(=O)N(C)C (stereo not given) | -5.85%
CCN1CCN(C(=O)COCc2nc(-c3ccncc3)no2)CC1 | -1.19%
COc1cccc2c1ccn2CC(=O)Nc1nc[nH]n1 | -11.8%
Cc1cn[nH]c1C1COCCN1Cc1cscn1 (stereo not given) | -13.2%
CCc1ccc(CN2CCNC(C(=O)N3CCN(C)CC3)C2)nc1 (stereo not given) | -0.217%
O=C([C@@H]1COC[C@H]2CN(CC3CC3)C[C@H]21)N1CCC(F)CC1 | 32.5%
CCc1c(C)noc1-c1cnc(NC2CC2)nc1-c1cnc(C)cn1 | -7.43%
Cc1cnc(CNC(=O)C2CCOc3ccccc3C2)cn1 (stereo not given) | -19.3%
CC(=O)Nc1cc(C(=O)Nc2cc(CC(C)(C)C)nn2C)ccc1F | 14.4%
Cc1cc(C(=O)N2CCCCC2C)ccc1NCCCO (stereo not given) | -17.1%
COc1ccc(F)cc1C(C)NC(=O)NCCCn1cncn1 (stereo not given) | -2.2%
COc1ccc(CN2CCN(CC3CC3)[C@@H]3CS(=O)(=O)C[C@@H]32)cc1O | -2.14%
O=C(COc1ccc(-n2cccn2)nn1)NC1CCCCC1 | 0.192%
Cn1cc(C2CCCN2C(=O)CCc2cnn(-c3ccccc3)c2)cn1 (stereo not given) | -3.27%
CN(CC(=O)NCC(C)(C)c1ccc2c(c1)OCO2)c1cnccn1 | -12.3%
CCOCC1CN(S(=O)(=O)c2cccc(C)c2)Cc2nccn2C1 (stereo not given) | -8.99%
O=C(c1ccc(=O)[nH]c1)N1CCCC2(C=Cc3ccccc3O2)CC1 (stereo not given) | -3.22%
Cc1nnc(N2CCC(CN(C)C(C)C)CC2)c(C#N)c1C | 20.7%
Cn1ccnc1-c1noc(NCc2ccccc2)n1 | -7.49%
CCC1CC(=O)NCc2nc3sc(C)cn3c21 (stereo not given) | -4.35%
